Converted amounts (≈) assume the structure as drawn.
Assays:
Influenza A virus = assay: Cytotoxicity against A/WSN/33 strain (an H1N1 subtype) influenza virus in the plaque reduction assay; format: functional
[1] = Inhibitory activity against A/WSN/33 strain (an H1N1 subtype) influenza virus was measured by cell protection assay in MDBK cells; Not active; format: functional, cell-based, Bos taurus
[2] = Inhibitory activity against A/WSN/33 strain (an H1N1 subtype) influenza virus was measured by cell protection assay in MDBK cells; format: functional, cell-based, Bos taurus
[3] = Inhibitory activity against A/WSN/33 strain (an H1N1 subtype) influenza virus was measured by cell protection assay in MDBK cells; Value ranges from 0.2-0.3 ug/mL; format: functional, cell-based, Bos taurus

SMILES	CC50 (Influenza A virus) [µg/mL]	EC50 [1]	EC50 [2] [µg/mL]	EC50 [3] [µg/mL]
C[C@@H]1CCC[C@@H]2C[C@@H](NC(=O)c3cc(-c4ccccc4)ccc3O)CCN21	30 (≈ 82.3 µM)	Not Active		
C[C@@H]1CCC[C@@H]2C[C@@H](NC(=O)c3cc(C(=O)c4ccccc4)ccc3O)CCN21	> 100	Not Active		
C=Cc1ccc(O)c(C(=O)N[C@H]2CCN3[C@H](CCC[C@H]3C)C2)c1	> 100		2 (≈ 6.36 µM)	
C[C@@H]1CCC[C@@H]2C[C@@H](NC(=O)c3c(O)ccc4ccccc34)CCN21	> 100	Not Active		
C[C@@H]1CCC[C@@H]2C[C@@H](NC(=O)c3cc(Cl)c(N=[N+]=[N-])cc3O)CCN21		Not Active		
C[C@@H]1CCC[C@@H]2C[C@@H](NC(=O)c3cc(I)ccc3O)CCN21	100 (≈ 241 µM)		1 (≈ 2.41 µM)	
C[C@@H]1CCC[C@@H]2C[C@@H](NC(=O)c3ccccc3O)CCN21	> 100		1.6 (≈ 5.55 µM)	
C[C@@H]1CCC[C@@H]2C[C@@H](NC(=O)c3cc(N=[N+]=[N-])ccc3O)CCN21	> 100		0.5 (≈ 1.52 µM)	
C[C@@H]1CCC[C@@H]2C[C@@H](NC(=O)c3cc(O)ccc3O)CCN21	50 (≈ 164 µM)	Not Active		
C[C@@H]1CCC[C@@H]2C[C@@H](NC(=O)c3ccc(N)c(Cl)c3)CCN21		Not Active		
C[C@@H]1CCC[C@@H]2C[C@@H](NC(=O)c3cc(F)ccc3O)CCN21	> 100		0.4 (≈ 1.31 µM)	
COc1ccc(O)c(C(=O)N[C@H]2CCN3[C@H](CCC[C@H]3C)C2)c1	100 (≈ 314 µM)		0.6 (≈ 1.88 µM)	
C[C@@H]1CCC[C@@H]2C[C@@H](NC(=O)c3cc(Cl)ccc3O)CCN21	> 100		0.8 (≈ 2.48 µM)	
Cc1ccc(O)c(C(=O)N[C@H]2CCN3[C@H](CCC[C@H]3C)C2)c1	100 (≈ 331 µM)			0.2 (≈ 0.661 µM)
CC(=O)Nc1ccccc1C(=O)N[C@H]1CCN2[C@H](CCC[C@H]2C)C1	> 100	Not Active		
C[C@@H]1CCC[C@@H]2C[C@@H](NC(=O)c3ccc(N)cc3O)CCN21	> 100	Not Active		
C[C@@H]1CCC[C@@H]2C[C@@H](NC(=O)c3cc4c(cc3O)C(C)(C)CCC4(C)C)CCN21	8 (≈ 20.1 µM)	Not Active		
Cc1cccc(C(=O)N[C@H]2CCN3[C@H](CCC[C@H]3C)C2)c1O	> 100		8 (≈ 26.5 µM)	
C[C@@H]1CCC[C@@H]2C[C@@H](NC(=O)c3cc(Cl)c(N)cc3O)CCN21	> 100		1 (≈ 2.96 µM)	
COc1cc(N)c(Cl)cc1C(=O)N[C@H]1CCN2[C@H](CCC[C@H]2C)C1	> 100	Not Active		
C[C@@H]1CCC[C@@H]2C[C@@H](NC(=O)c3cc(Br)ccc3O)CCN21	> 100		0.8 (≈ 2.18 µM)	
Cc1ccc(C(=O)N[C@H]2CCN3[C@H](CCC[C@H]3C)C2)c(O)c1	> 100		4 (≈ 13.2 µM)	
C[C@@H]1CCC[C@@H]2C[C@@H](NC(=O)c3c(O)cccc3F)CCN21	> 100		10 (≈ 32.6 µM)	
C[C@@H]1CCC[C@@H]2C[C@@H](NC(=O)c3cc(Cl)cc(Cl)c3O)CCN21	> 100		10 (≈ 28 µM)	
C[C@@H]1CCC[C@@H]2C[C@@H](NC(=O)c3cc(C(C)(C)C)ccc3O)CCN21	50 (≈ 145 µM)	Not Active		
C[C@@H]1CCC[C@@H]2C[C@@H](NC(=O)c3cc4ccccc4cc3O)CCN21	> 100	Not Active		
C[C@@H]1CCC[C@@H]2C[C@@H](NC(=O)c3cc(C(F)(F)F)ccc3O)CCN21	> 100	Not Active		
C[C@@H]1CCC[C@@H]2C[C@@H](NC(=O)c3ccccc3N)CCN21	> 100		5 (≈ 17.4 µM)	
C[C@@H]1CCC[C@@H]2C[C@@H](NC(=O)c3cccc(O)c3O)CCN21	10 (≈ 32.9 µM)	Not Active		

Reference: ChEMBL document CHEMBL1131816, “Novel quinolizidine salicylamide influenza fusion inhibitors” (Bioorg Med Chem Lett, 1999)
